Two molecules from patent US11459545B2, “Methods to enhance delivery and engraftment of stem cells including the identification of specific prostaglandin E2 receptors” (INDIANA UNIVERSITY RESEARCH AND TECHNOLOGY CORPORATION, priority 2009, dated 2022) can be followed below.

The test deals with CD34+ cells from cord blood. Description: CXCR4 expression on CD34+ cells after ex vivo pulse exposure (flow cytometry). The test is classed as cell-based, human. Particulars: for up regulation of CXCR4 on the surface of CD34+ cells: cord blood samples, ex vivo pulse exposure, cytometry histograms compared to isotype control (FIG. 1). As to the method:
Un-manipulated hematopoietic grafts or purified hematopoietic stem cell populations (e.g., SKL cells in mice or CD34^+ cells in humans) are incubated with an EP4 specific agonist: 5-[(1E,3R)-4,4-difluoro-3-hydroxy-4-phenyl-1-buten-1-yl]-1-[6-(2H-tetrazol-5R-yl)hexyl]-2-pyrrolidinone (i.e. L-902,688), on ice or at room temperature at concentrations of 0.001-10 microMolar agonist per 1-10 million cells in 1 ml of culture medium, e.g. IMDM, for 15 minutes-6 hrs. After incubation, the cells are washed 3 times in sterile media or saline and administered to recipients, intravenously. L-902,688 was a generous gift from Merck Frosst (Kirkland, Canada) (Young, et al., 2004).
Referring now to FIG. 1. This graph illustrates that treatment of cells with EP4 agonist ex vivo specifically up regulates CXCR4 expression on CD34^+ cells. […] The bar graph indicator data measured from such experiments graphed as a function of different compounds used dmPGE2, Butaprostone, sulprostone and EP4.
Referring now to FIG. 2. This graph illustrates that signaling via the EP4 receptor is responsible for up regulation of CXCR4 expression. […] Treatment with EP4 agonist ex vivo up regulates CXCR4 expression on CD34^+ cells. […] In the bar chart this effort is normalized to 100%. […] The fact that up regulation of CXCR4 by an EP4 selective agonist is blocked by a selective EP4 antagonist, but not by EP1, 2, 3, antagonist, provides additional evidence that up regulation is mediated through the EP4 receptor.
For orientation: Flow cytometry measures light scatter and fluorescence of single cells or particles in a stream.

In the case of `O=C1CC[C@H](/C=C/[C@@H](O)C(F)(F)c2ccccc2)N1CCCCCCc1nn[nH]n1` [EP4 agonist, 5-[(1E,3R)-4,4-difluoro-3-hydroxy-4-phenyl-1-buten-1-yl]-1-[6-(2H-tetrazol-5R-yl)hexyl]-2-pyrrolidinone], the “up regulation of CXCR4 on the surface of CD34+ cells” value is reported as “significant up regulation”. Also, the “up regulation of CXCR4 expression on CD34+ cells” value (ex vivo treatment, combined data for 8 cord blood samples (FIG. 2)) is “about 3 fold”.
For `CCCCC(C)(C)[C@H](O)/C=C/[C@H]1[C@H](O)CC(=O)[C@@H]1C/C=C\CCCC(=O)O` [dmPGE2, 16,16 dimethylprostaglandin E2], the “up regulation of CXCR4 on the surface of CD34+ cells” value is on record as “significant up regulation”.
